{
  "source": "patent US20210001143A1",
  "about": "“FOCAL PHOTODYNAMIC THERAPY METHODS” (STEBA MAOR SA, priority 2011, published 2021)",
  "key": {"[1]": {"tested_on": "low risk organ-confined prostate cancer", "test": "Vascular-targeted photodynamic therapy (VTP), 6 month TRUS-guided biopsy", "assay_type": "in vivo, human", "conditions": "study PCM201, 4 mg/kg intravenously, light 200 J/cm, men", "method": "(§1) Men with low risk organ-confined prostate cancer (Gleason 3+3 on minimum 10 core TRUS biopsy) were recruited into two consecutive studies: PCM201 (a dose escalation study) or PCM203 (a confirmatory study). The vascular-targeted photodynamic therapy (“VTP”) procedure, carried out under general anesthesia, involved administration of TOOKAD® Soluble intravenously at 4 mg/kg, which was then activated by low power laser light delivered locally to the prostate via a brachytherapy-style transperineal template with a light density of 200 J/cm. Planned treatment volume (“PTV”, in mls) was determined by the location of tumor on biopsy and by MRI, and varied in volume from less than one lobe, to the whole prostate.\n(§2) The Light Density Index (“LDI”) was calculated as LDI=Σ(n)L/PTV, where Σ(n)L is the total length of all illuminating fibers (in cm), and PTV is the planned treatment volume, in mls.\n(§3) This was also correlated with the result of 6 month transrectal ultrasound (TRUS)-guided biopsy (positive or negative for any cancer).\n(§4) The correlation between LDI and the volume of tissue necrosis at day 7 and with the rate of negative biopsies at Month 6 was assessed in search of a threshold.\n(§5) 90 men were treated with a TOOKAD® Soluble dose of 4 mg/kg and a light dose of 200 J/cm in the two studies. Of these 89 were analyzable for LDI."}, "[2]": {"tested_on": "low risk organ-confined prostate cancer", "test": "Vascular-targeted photodynamic therapy (VTP), early treatment effect on 1 week MRI (lack of gadolinium uptake)", "assay_type": "in vivo, human", "conditions": "4 mg/kg intravenously, light 200 J/cm, men", "method": "as §1, §2, §3, §4, §5"}},
  "data": [
    {"substance": "Palladium 3^1-oxo-15-methoxycarbonylmethyl-rhodobacteriochlorin 13^1-(2-sulfoethyl) amide dipotassium salt [TOOKAD® Soluble]", "values": [
      {"measurement": "% of negative biopsies (6 months)", "setting": "[1]; LDI < 1", "value": "31 (4/17) %"},
      {"measurement": "% of negative biopsies (6 months)", "setting": "[1]; LDI ≥ 1", "value": "83 (10/12) %"},
      {"measurement": "Treatment effect on 1 week MRI as % of PTV", "setting": "[2]; study PCM201, LDI < 1", "value": "59 (17) % of PTV"},
      {"measurement": "Treatment effect on 1 week MRI as % of PTV", "setting": "[2]; study PCM201, LDI ≥ 1", "value": "95 (12) % of PTV"},
      {"measurement": "Treatment effect on 1 week MRI as % of PTV", "setting": "[2]; study PCM203, LDI < 1", "value": "60 (22) % of PTV"},
      {"measurement": "Treatment effect on 1 week MRI as % of PTV", "setting": "[2]; study PCM203, LDI ≥ 1", "value": "94 (28) % of PTV"}
    ]}
  ]
}
